In patent publication US6020374A, “Biologically active synthetic dye compounds” (priority 1998, dated 2000):

How the values were obtained:
cells = settings: apoptosis induced by growth factor deprivation or by drugs such as cycloheximide (CX); cited from earlier work
IRS-1 = IRS-1 tyrosine phosphorylation and association with p85 in FaO cells; type: cell-based, rat; settings: 5 mins., EB 200 μg/ml, insulin 600 ng/ml
Protocol: (§1) FIG. 9 is the tyrosine phosphorylation of the IR cascade in Fao cells: A--Immunoblot analysis: Fao cells were deprived of serum for 20 hours, then incubated with EB, ATA, at 200 μg/ml or insulin at 600 ng/ml for 5 mins. Cell extracts were subjected to immunoprecipitation with antibodies to: IR β-subunit (αIR), IRS-1 (αIRS-1) and to IRS-2 (αIRS-2). The immunoprecipitates and total cell extracts were analyzed by SDS-PAGE. Proteins were transferred to nitrocellulose papers, and phosphotyrosine containing proteins were probed with anti-phosphotyrosine antibodies (αP-Tyr), antibody to the 85-kDa subunit of PI3-kinase (αp85) and antibodies to active MAPK (α active MAPK). The immunoblots were visualized by ECL (Amersham).
(§2) MCF-7 cells were grown in 35 or 100 mm dishes in DMEM with 5% bovine fetal serum. Rat hepato FaO cells were grown in RPMI 1640 medium supplemented with 10% fetal calf serum. Subconfluent monolayers of MCF-7 cells or FaO cells, were deprived of serum for 20 hours prior to each experiment. The medium was removed, and cells were incubated at 37° C. under the conditions as indicated for each experiment. […]
(§3) Nitrocellulose blots of proteins were incubated with the antibodies, and proteins were detected by enhanced chemiluminescence using horseradish peroxidase-labeled protein A, horseradish peroxidase-labeled anti rabbit IgG or horseradish peroxidase-labeled anti-mouse IgG. […]

IRS-2 = IRS-2 tyrosine phosphorylation and association with p85 in FaO cells; type: cell-based, rat; settings: 5 mins., EB 200 μg/ml, insulin 600 ng/ml
Protocol: as §1, §2, §3

MAPKs 1 and 2 = assay: Activation of MAPKs in FaO cells; type: cell-based, rat; settings: 5 mins., EB 200 μg/ml, insulin 600 ng/ml
Protocol: as §1
Nitrocellulose blots of proteins were incubated with the antibodies, and proteins were detected by enhanced chemiluminescence using horseradish peroxidase-labeled protein A, horseradish peroxidase-labeled anti rabbit IgG or horseradish peroxidase-labeled anti-mouse IgG.
In the rat hepatoma cell line FaO, EB and insulin, enhanced IRS-1 and IRS-2 tyrosine phosphorylation and their association with the 85-kDa regulatory subunit of the PI-kinase (FIG. 9A). PI3-kinase activity increases following its association with IRS-1 and IRS-2 (FIG. 9C). MAPKs 1 and 2 were activated by EB and insulin (FIG. 9A).

[1] = system: IR, IRS-1 and the 85-kDa regulatory subunit of PI3-kinase; assay: In vivo tyrosine phosphorylation of the IR cascade in rat liver; settings: Sprague-Dawley male rats, portal vein injection, EB 20 mg/rat, insulin 1 u/rat
Protocol: A--Immunoblot analysis. Rat liver extracts were subjected to immunoprecipitation and blotting with the indicated antibodies, as described in the legend to FIG. 9A.
(§4) EB (20 mg/rat) or insulin (1 u/rat) was injected into about 120 g weighing Sprague-Dawley male rats, via the portal vein. Control rats were injected with saline (SAL) alone. The rats were killed and the livers excised and frozen in liquid nitrogen at the indicated times.

PI3-kinase = assay: In vivo PI3-kinase activity in rat liver; settings: Sprague-Dawley male rats, portal vein, 5 mins. after injection, EB 20 mg/rat, insulin 1 u/rat
Protocol: B--Induction of PI3-kinase. PI3-kinase activity, 5 mins. after injection was assayed as described in FIG. 9C. The results are representative of 2 to 4 independent experiments.
as §4

[2] = high doses; cited from earlier work

Compound: O=C(O)C1=CC(=C(c2ccc(O)c(C(=O)O)c2)c2ccc(O)c(C(=O)O)c2)C=CC1=O [ATA, Aurintricarboxylic acid]
- Protection of cells from apoptosis (cells): protect cells from apoptosis

Compound: Cc1cc(-c2ccc(N=Nc3ccc4c(S(=O)(=O)O)cc(S(=O)(=O)O)c(N)c4c3O)c(C)c2)ccc1N=Nc1ccc2c(S(=O)(=O)O)cc(S(=O)(=O)O)c(N)c2c1O [EB, Evan's Blue]
- IRS-1 tyrosine phosphorylation and association with the 85-kDa regulatory subunit of PI-kinase (IRS-1): enhanced
- IRS-2 tyrosine phosphorylation and association with the 85-kDa regulatory subunit of PI-kinase (IRS-2): enhanced
- Activation of MAPKs 1 and 2 (MAPKs 1 and 2): activated
- Tyrosine phosphorylation of IR, IRS-1 and 85-kDa subunit of PI3-kinase in liver [1]: phosphorylated tyrosines of IR, IRS-1 and the 85-kDa of the regulatory subunit of PI3-kinase
- PI3-kinase activity in liver (PI3-kinase): increased
- Toxicity to humans [2]: non-toxic to humans at high doses
